Publication doi:10.1101/2023.10.20.563248v1 (biorxiv, 2023)

How the values were obtained:
Conditions in all cases: 1 µM; inhibitor
CDK6 = CDK6 (Homo sapiens, UniProt Q00534)
CLK4 = CLK4 (Homo sapiens, UniProt Q9HAZ1)
CDK9 = CDK9 (Homo sapiens, UniProt P50750)
RON = RON (Homo sapiens, UniProt Q04912)
MAP3K1 = MAP3K1 (Homo sapiens, UniProt Q13233)
AKT1 = AKT1 (Homo sapiens, UniProt P31749)
PASK = PASK (Homo sapiens, UniProt Q96RG2)
p38g = p38g (Homo sapiens, UniProt P53778)
DYRK1A = DYRK1A (Homo sapiens, UniProt Q13627)
EEF2K = EEF2K (Homo sapiens, UniProt O00418)
Chain of EEF2K (O00418 whole entry): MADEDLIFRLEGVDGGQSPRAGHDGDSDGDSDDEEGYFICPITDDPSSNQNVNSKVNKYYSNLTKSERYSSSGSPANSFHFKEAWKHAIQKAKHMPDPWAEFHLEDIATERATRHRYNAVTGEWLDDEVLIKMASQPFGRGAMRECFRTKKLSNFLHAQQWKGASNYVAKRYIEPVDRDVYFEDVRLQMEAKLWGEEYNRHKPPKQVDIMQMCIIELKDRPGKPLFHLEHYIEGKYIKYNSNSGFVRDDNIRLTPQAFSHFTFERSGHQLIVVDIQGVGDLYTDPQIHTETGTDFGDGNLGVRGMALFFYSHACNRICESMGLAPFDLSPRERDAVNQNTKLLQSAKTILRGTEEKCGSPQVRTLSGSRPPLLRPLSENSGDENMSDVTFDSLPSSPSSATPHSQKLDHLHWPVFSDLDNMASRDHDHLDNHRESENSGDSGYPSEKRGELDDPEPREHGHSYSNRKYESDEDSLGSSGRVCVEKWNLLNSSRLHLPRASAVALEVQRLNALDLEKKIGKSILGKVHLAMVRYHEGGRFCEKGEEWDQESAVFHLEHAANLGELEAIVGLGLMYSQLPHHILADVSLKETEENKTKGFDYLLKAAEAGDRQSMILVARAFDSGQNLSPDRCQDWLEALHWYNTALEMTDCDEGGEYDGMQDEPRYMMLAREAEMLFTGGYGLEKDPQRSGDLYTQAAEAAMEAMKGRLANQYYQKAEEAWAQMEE

CK1g3 = CK1g3 (Homo sapiens, UniProt Q9Y6M4)
PDGFRa = PDGFRa (Homo sapiens, UniProt P16234)
YES = YES (Homo sapiens, UniProt P07947)
TNK1 = TNK1 (Homo sapiens, UniProt Q13470)
CDK4/CycD3 = CDK4/CycD3 (Homo sapiens, UniProt P11802)
RIPK2 = RIPK2 (Homo sapiens, UniProt O43353)
Chain of RIPK2 (O43353 whole entry): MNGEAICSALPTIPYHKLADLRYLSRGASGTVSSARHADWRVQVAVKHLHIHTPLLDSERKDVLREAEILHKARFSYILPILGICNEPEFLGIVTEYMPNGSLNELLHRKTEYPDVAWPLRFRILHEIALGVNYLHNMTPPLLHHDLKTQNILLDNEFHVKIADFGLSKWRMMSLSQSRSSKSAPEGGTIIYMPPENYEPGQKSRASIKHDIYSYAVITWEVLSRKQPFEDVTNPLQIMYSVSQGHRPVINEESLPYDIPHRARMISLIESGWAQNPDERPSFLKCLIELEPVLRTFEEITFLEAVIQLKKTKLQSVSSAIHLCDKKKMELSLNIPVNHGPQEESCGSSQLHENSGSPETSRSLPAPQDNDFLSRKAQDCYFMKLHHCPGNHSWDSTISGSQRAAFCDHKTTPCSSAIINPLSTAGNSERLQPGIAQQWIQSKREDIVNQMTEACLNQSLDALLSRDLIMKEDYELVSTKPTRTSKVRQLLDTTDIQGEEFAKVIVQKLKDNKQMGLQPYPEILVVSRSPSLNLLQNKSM

PHKG1 = PHKG1 (Homo sapiens, UniProt Q16816)
CDK4 = CDK4 (Homo sapiens, UniProt P11802)
CDK3 = CDK3 (Homo sapiens, UniProt Q00526)
CAMK1D = CAMK1D (Homo sapiens, UniProt Q8IU85)
Chain of CAMK1D (Q8IU85 whole entry): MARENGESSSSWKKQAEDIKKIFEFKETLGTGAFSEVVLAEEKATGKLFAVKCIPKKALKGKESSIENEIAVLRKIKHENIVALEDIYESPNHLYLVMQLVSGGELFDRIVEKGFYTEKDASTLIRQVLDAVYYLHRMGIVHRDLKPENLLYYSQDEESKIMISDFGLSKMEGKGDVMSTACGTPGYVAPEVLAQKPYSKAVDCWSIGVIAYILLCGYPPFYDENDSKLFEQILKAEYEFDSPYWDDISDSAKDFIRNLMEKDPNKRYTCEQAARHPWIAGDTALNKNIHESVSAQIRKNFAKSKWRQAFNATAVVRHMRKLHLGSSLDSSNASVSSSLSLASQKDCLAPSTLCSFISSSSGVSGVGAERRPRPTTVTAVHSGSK

RPS6KA2 = RPS6KA2 (Homo sapiens, UniProt Q15349)
STK23 = STK23 (Homo sapiens, UniProt Q9UPE1)
PKCi = PKCi (Homo sapiens, UniProt P41743)
Chain of PKCi (P41743 whole entry): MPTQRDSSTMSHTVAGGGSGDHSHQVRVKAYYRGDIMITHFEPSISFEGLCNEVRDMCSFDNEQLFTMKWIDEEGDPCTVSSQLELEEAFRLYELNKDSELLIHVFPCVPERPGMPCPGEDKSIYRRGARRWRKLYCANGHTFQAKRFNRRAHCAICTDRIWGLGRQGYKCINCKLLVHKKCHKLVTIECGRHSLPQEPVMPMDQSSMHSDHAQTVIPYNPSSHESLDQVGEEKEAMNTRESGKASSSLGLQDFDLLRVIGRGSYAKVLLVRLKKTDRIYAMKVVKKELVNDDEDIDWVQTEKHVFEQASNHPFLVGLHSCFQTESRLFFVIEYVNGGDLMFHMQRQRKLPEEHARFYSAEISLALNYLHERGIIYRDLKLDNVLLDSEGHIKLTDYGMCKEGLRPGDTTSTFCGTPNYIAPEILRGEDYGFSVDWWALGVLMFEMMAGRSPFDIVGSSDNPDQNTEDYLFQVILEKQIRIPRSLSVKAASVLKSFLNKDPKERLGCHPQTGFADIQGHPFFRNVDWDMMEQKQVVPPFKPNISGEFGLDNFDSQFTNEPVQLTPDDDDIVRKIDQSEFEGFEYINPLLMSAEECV

PLK3 = PLK3 (Homo sapiens, UniProt Q9H4B4)
VRK1 = VRK1 (Homo sapiens, UniProt Q99986)
Chain of VRK1 (Q99986 whole entry): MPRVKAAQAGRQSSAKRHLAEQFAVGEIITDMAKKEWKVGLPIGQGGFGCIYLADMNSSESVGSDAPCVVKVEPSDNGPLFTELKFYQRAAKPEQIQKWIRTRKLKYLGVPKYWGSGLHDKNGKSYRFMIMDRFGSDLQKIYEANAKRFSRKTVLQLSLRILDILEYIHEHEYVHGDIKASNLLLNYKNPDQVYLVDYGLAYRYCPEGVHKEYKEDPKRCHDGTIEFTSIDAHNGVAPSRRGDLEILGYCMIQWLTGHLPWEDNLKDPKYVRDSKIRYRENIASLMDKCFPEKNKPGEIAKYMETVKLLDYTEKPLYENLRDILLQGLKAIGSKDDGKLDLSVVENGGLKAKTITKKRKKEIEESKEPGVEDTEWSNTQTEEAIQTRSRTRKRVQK

GRK4 = GRK4 (Homo sapiens, UniProt P32298)
NEK6 = NEK6 (Homo sapiens, UniProt Q9HC98)
Chain of NEK6 (Q9HC98 whole entry): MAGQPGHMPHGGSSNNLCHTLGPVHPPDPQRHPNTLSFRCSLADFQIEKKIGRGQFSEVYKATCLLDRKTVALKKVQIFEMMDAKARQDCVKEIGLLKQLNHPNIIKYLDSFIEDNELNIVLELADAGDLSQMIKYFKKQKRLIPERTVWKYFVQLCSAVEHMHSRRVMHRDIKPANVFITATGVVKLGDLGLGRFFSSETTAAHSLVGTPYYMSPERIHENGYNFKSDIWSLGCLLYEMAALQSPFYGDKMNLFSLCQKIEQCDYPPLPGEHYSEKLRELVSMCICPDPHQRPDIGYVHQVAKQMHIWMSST

MST4 = MST4 (Homo sapiens, UniProt Q9P289)
Chain of MST4 (Q9P289 whole entry): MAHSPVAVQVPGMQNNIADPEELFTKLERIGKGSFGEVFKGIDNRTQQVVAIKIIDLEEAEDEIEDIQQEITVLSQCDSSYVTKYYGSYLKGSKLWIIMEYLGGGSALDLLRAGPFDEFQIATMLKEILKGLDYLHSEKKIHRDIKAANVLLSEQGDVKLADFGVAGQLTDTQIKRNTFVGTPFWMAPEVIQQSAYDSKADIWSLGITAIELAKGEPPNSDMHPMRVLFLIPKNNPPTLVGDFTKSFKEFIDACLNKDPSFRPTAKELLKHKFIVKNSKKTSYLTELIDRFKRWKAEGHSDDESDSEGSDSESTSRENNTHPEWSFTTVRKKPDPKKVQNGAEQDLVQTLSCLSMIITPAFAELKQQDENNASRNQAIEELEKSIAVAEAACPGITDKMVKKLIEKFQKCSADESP

NEK9 = NEK9 (Homo sapiens, UniProt Q8TD19)
GRK6 = GRK6 (Homo sapiens, UniProt P43250)
NEK4 = NEK4 (Homo sapiens, UniProt P51957)

Chain of CDK9 (P50750 whole entry): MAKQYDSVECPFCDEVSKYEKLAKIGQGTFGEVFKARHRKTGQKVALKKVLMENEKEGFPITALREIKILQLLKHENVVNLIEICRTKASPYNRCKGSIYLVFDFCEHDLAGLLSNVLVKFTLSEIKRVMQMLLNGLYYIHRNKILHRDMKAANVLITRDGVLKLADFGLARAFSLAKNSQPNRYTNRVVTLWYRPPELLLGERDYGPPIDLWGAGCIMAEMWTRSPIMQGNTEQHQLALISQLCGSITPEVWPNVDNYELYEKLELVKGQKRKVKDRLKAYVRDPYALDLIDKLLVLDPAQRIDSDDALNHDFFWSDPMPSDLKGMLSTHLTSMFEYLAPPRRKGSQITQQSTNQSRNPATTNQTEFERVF
Chain of CLK4 (Q9HAZ1 whole entry): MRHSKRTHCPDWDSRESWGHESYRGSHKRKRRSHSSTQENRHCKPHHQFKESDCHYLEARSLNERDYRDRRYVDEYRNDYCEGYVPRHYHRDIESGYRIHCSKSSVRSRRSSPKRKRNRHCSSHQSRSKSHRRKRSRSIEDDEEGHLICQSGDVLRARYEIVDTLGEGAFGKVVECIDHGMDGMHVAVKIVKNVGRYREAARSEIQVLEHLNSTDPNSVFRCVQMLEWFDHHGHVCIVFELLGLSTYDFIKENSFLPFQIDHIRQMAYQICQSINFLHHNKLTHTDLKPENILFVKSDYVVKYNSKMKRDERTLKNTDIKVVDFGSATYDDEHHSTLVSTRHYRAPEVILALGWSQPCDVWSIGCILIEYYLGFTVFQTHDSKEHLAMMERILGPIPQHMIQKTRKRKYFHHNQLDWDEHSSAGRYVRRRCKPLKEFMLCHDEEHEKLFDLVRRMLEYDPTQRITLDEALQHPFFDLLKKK
Chain of AKT1 (P31749 whole entry): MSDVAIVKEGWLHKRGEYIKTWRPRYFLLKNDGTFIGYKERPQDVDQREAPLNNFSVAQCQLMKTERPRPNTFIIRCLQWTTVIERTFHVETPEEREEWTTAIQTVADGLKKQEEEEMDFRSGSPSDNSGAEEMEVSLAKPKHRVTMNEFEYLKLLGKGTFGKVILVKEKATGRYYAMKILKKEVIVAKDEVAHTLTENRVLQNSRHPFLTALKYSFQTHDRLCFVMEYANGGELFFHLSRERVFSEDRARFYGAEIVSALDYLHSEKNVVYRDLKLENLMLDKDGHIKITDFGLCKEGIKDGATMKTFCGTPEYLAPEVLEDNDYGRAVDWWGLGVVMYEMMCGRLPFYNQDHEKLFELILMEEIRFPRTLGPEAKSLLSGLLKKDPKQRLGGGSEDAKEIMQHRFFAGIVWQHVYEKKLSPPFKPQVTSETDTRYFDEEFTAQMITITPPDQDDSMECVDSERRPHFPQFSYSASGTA

For `O=C1NCCCCCNc2nc(c3ccccc3n2)Nc2cc1[nH]n2` [21c, (Z)-3^1H-2,5,11-triaza-1(4,2)-quinazolina-3(3,5)-pyrazolacycloundecaphan-4-one], the “21c Remaining activity, percent of control [%]” value (CDK6) was 105.2%, the “21c Remaining activity, percent of control [%]” value (CLK4) was 76.4% and the “21c Remaining activity, percent of control [%]” value (CDK9) was 83.3%. The “21c Remaining activity, percent of control [%]” value (RON) was 94.5%, the “21c Remaining activity, percent of control [%]” value (MAP3K1) was 100.1% and the “21c Remaining activity, percent of control [%]” value (AKT1) was 92.1%. The “21c Remaining activity, percent of control [%]” value (PASK) was 100.8%, the “21c Remaining activity, percent of control [%]” value (p38g) was 88.6% and the “21c Remaining activity, percent of control [%]” value (DYRK1A) was 82.2%. The “21c Remaining activity, percent of control [%]” value (EEF2K) was 114.2%, the “21c Remaining activity, percent of control [%]” value (CK1g3) was 100.8% and the “21c Remaining activity, percent of control [%]” value (PDGFRa) was 102.0%. For the same molecule, the “21c Remaining activity, percent of control [%]” value (YES) was 81.2%, the “21c Remaining activity, percent of control [%]” value (TNK1) was 96.2% and the “21c Remaining activity, percent of control [%]” value (CDK4/CycD3) was 111.1%. For the same molecule, the “21c Remaining activity, percent of control [%]” value (RIPK2) was 105.0%, the “21c Remaining activity, percent of control [%]” value (PHKG1) was 98.0% and the “21c Remaining activity, percent of control [%]” value (CDK4) was 84.5%. The “21c Remaining activity, percent of control [%]” value (CDK3) was 95.9%, the “21c Remaining activity, percent of control [%]” value (CAMK1D) was 103.0% and the “21c Remaining activity, percent of control [%]” value (RPS6KA2) was 84.0%. The “21c Remaining activity, percent of control [%]” value (STK23) was 80.7%, the “21c Remaining activity, percent of control [%]” value (PKCi) was 83.5% and the “21c Remaining activity, percent of control [%]” value (PLK3) was 102.7%. For the same molecule, the “21c Remaining activity, percent of control [%]” value (VRK1) was 91.5%, the “21c Remaining activity, percent of control [%]” value (GRK4) was 112.1% and the “21c Remaining activity, percent of control [%]” value (NEK6) was 89.5%. The “21c Remaining activity, percent of control [%]” value (MST4) was 18.0%, the “21c Remaining activity, percent of control [%]” value (NEK9) was 109.8% and the “21c Remaining activity, percent of control [%]” value (GRK6) was 87.6%. For the same molecule, the “21c Remaining activity, percent of control [%]” value (NEK4) was 103.8%.
